Earlier results in publication PMC10140125 (Investigational New Drugs, 2023).

System: recurrent malignant gliomas
Parameters: method as in PMID 20458050, PMID 20200024
Conditions: phase II studies, recurrent malignant gliomas ref 4, 22

COc1cc2c(Oc3ccc4[nH]c(C)cc4c3F)ncnc2cc1OCCCN1CCCC1 [cediranib]
ORR: 56.7%

Cc1ccc(Nc2nccc(N(C)c3ccc4c(C)n(C)nc4c3)n2)cc1S(N)(=O)=O [pazopanib]
ORR: 5.9%
